The results in this text go back to ChEMBL document CHEMBL1129820, “1,4-Bis-(2,3-epoxypropylamino)-9,10-anthracenedione and related compounds as potent antifungal and antimicrobial agents” (Bioorg Med Chem Lett, 1997).

Each structure is given as a SMILES string. Values after ≈ are worked out from the molar mass of the structure shown.

In test [1] the test system is Pseudomonas fluorescens. The test is described as follows: The compound was evaluated for antibacterial activity against Pseudomonas fluorescence at pH 8.0. The format is functional.
The test system of test [2] is Pseudomonas fluorescens. As to the kind of experiment: The compound was evaluated for antibacterial activity against Pseudomonas fluorescence at pH 5.5. The format is functional.
Test [3] relates to Pseudomonas fluorescens. The test is described as follows: The compound was evaluated for antibacterial activity against Pseudomonas fluorescence at pH 7.0. It is filed as functional.
For test [4], the system named is Pseudomonas fluorescens. The test is described as follows: The compound was evaluated for antibacterial activity against Pseudomonas fluorescence at pH 9.0. It is filed as functional.
Test [5] has as its system Talaromyces funiculosus. The test is described as follows: The compound was evaluated for antifungal activity against Penicillium funiculosum at pH 7.5 (end point 2.5 p.p.m. in separate test). It is filed as functional.
For test [6], the system named is Aureobasidium pullulans. As to the kind of experiment: The compound was evaluated for antifungal activity against Aureobasidium pullulans at pH 7.5 (end point <0.25 p.p.m. in separate test). It is filed as functional.
Test [7] concerns Amorphotheca resinae. As to the kind of experiment: The compound was evaluated for antifungal activity against Cladosporium resinae at pH 7.5 (end point 2.5 p.p.m. in separate test). The format is functional.
Test [8] deals with Chaetomium globosum. As to the kind of experiment: The compound was evaluated for antifungal activity against Chaetomium globosum at pH 7.5 (end point 2.5 p.p.m. in separate test). It is filed as functional.
For test [9], the system named is Pseudomonas fluorescens. As to the kind of experiment: The compound was evaluated for antibacterial activity against Pseudomonas fluorescence at pH 4.0. The format is functional.
Test [10] concerns Aspergillus niger. As to the kind of experiment: The compound was evaluated for antifungal activity against Aspergillus niger at pH 7.5 (end point 0.25 p.p.m. in separate test). The format is functional.
Test [11] relates to Phytophthora capsici. The test is described as follows: The compound was evaluated for antifungal activity against the fungi Phytophthora capsici. The format is functional.
Test [12] concerns Globisporangium ultimum. As to the kind of experiment: The compound was evaluated for antifungal activity against the fungi Pythium ultimum. It is filed as functional, organism-based.
For test [13], the system named is Pseudomonas fluorescens. As to the kind of experiment: The compound was evaluated for antibacterial activity against the Pseudomonas fluorescence at pH 7.0. It is filed as functional.
Test [14] deals with Dolichospermum flos-aquae. The test is described as follows: The compound was evaluated for antialgal activity against Anabaena flos-aquae. The format is functional.
Test [15] deals with Auxenochlorella pyrenoidosa. The test is described as follows: The compound was evaluated for antialgal activity against Chlorella pyrenoidosa. The format is functional.
The subject of test [16] is Pseudomonas aeruginosa. The test is described as follows: The compound was evaluated for antibacterial activity against Pseudomonas aeruginosa at pH 7.0. It is filed as functional.
The subject of test [17] is Aspergillus niger. The test is described as follows: The compound was evaluated for antifungal activity against Aspergillus niger at pH 7.5. The format is functional.
Test [18] has as its system Aureobasidium pullulans. The test is described as follows: The compound was evaluated for antifungal activity against Aureobasidium pullulans at pH 7.5. The format is functional.
Test [19] deals with Escherichia coli. The test is described as follows: The compound was evaluated for antibacterial activity against Escherichia coli at pH 7.0. It is filed as functional.
In test [20] the test system is Staphylococcus aureus. The test is described as follows: The compound was evaluated for antibacterial activity against Staphylococcus aureus at pH 7.0. It is filed as functional.
The subject of test [21] is Pseudomonas fluorescens. The test is described as follows: The compound was evaluated for antibacterial activity against Pseudomonas fluorescence at pH 7.0 in trypticase soy broth medium. The format is functional.
Test [22] relates to Pseudomonas fluorescens. As to the kind of experiment: The compound was evaluated for antibacterial activity against Pseudomonas fluorescence at pH 4.0 in trypticase soy broth medium. The format is functional.
Test [23] relates to Chaetomium globosum. As to the kind of experiment: The compound was evaluated for antifungal activity against Chaetomium globosum at pH 7.5 (end point <0.25 p.p.m. in separate test). It is filed as functional.
Test [24] relates to Staphylococcus aureus. As to the kind of experiment: The compound was evaluated for antifungal activity against Staphylococcus aureus in separate test(endopoint 0.25 p.p.m.) at pH 7.0. The format is functional.
In test [25] the test system is Amorphotheca resinae. As to the kind of experiment: The compound was evaluated for antifungal activity against Cladosporium resinae at pH 7.5 (end point <0.25 p.p.m. in separate test). It is filed as functional.
Test [26] relates to Aureobasidium pullulans. The test is described as follows: The compound was evaluated for antifungal activity against Aureobasidium pullulans at pH 7.5 (end point 25 p.p.m. in separate test). It is filed as functional.
For test [27], the system named is Pseudomonas fluorescens. As to the kind of experiment: The compound was evaluated for antibacterial activity against Pseudomonas fluorescence at pH 9.0 in trypticase soy broth medium. It is filed as functional.
Test [28] deals with Pseudomonas fluorescens. As to the kind of experiment: The compound was evaluated for antifungal activity against Pseudomonas fluorescence in separate test(endopoint 0.25 p.p.m.) at pH 7.0. The format is functional.

By MIC is commonly meant the lowest concentration found to suppress growth. A high value points to a less susceptible organism. With `O=C1c2ccccc2C(=O)c2c(NCC(Cl)CO)ccc(NCC(Cl)CO)c21` (stereo not given), the MIC in test [1] was 50 µg/mL (≈ 118 µM); in test [2] it was above 100 µg/mL; in [3], 25 µg/mL (≈ 59.1 µM); in test [4], 50 µg/mL (≈ 118 µM).

Regarding `CCCCNC(=O)OC#CCI`, the MIC in test [5] came out at 0.8 µg/mL (≈ 2.85 µM); in test [6], 0.1 µg/mL (≈ 0.356 µM); in [7] it was 25 µg/mL (≈ 88.9 µM); in test [8], 1.6 µg/mL (≈ 5.69 µM); in test [3], 0.2 µg/mL (≈ 0.712 µM); in test [4], 50 µg/mL (≈ 178 µM). The figures for the minimal inhibitory concentration (MIC) in test [9] and in test [10] were 50 µg/mL (≈ 178 µM) and 1.6 µg/mL (≈ 5.69 µM), respectively.

Consider `O=C1c2ccccc2C(=O)c2c(NCC(Br)CO)ccc(NCC(Br)CO)c21` (stereo not given), for which the MIC came to 0.4 µg/mL (≈ 0.781 µM) in test [1], 100 µg/mL (≈ 195 µM) in test [2], 50 µg/mL (≈ 97.6 µM) in [3] and 0.2 µg/mL (≈ 0.39 µM) in [4].

`COCC(=O)N(c1c(C)cccc1C)C(C)C(=O)OC` (stereo not given) [METALAXYL]: in test [11], it took 0.4 µg/mL (≈ 1.43 µM) to inhibit growth (MIC). In test [12], this compound yielded an EC50 of 0.017 p.p.m.

With `CCCCCCCCn1sc(Cl)c(Cl)c1=O`, the MIC in test [13] was below 0.2 µg/mL.

`Cn1sc(Cl)cc1=O.Cn1sccc1=O`: the results for the minimal inhibitory concentration (MIC) in test [14] and in test [15] were 0.1 µg/mL and 0.3 µg/mL, respectively.

For the compound `O=C1c2ccccc2C(=O)c2c(OCC3CO3)ccc(OCC3CO3)c21` (stereo not given), the MIC in test [16] is above 250 µg/mL; in [13] it was 4 µg/mL (≈ 11.4 µM); in test [17], above 250 µg/mL; in test [18], above 250 µg/mL; in test [19], above 250 µg/mL; in test [20], above 250 µg/mL. In addition, in test [12], the EC50 is on record as 3.6 p.p.m.

As for `O=C1c2ccccc2C(=O)c2c(NCC3CO3)ccc(NCC3CO3)c21` (stereo not given), the MIC in test [5] was 0.8 µg/mL (≈ 2.28 µM); in test [21], 0.2 µg/mL (≈ 0.571 µM); in test [1], 0.05 µg/mL (≈ 0.143 µM); in test [22] it was 0.2 µg/mL (≈ 0.571 µM); in test [16], 63 µg/mL (≈ 180 µM); in test [14] it was below 2 µg/mL. Also, the MIC in [2] was 0.025 µg/mL (≈ 0.0714 µM); in test [15], below 2 µg/mL; in test [23], 0.4 µg/mL (≈ 1.14 µM); in [13], below 0.13 µg/mL; in [24] it was 0.2 µg/mL (≈ 0.571 µM); in [3], 0.05 µg/mL (≈ 0.143 µM). Besides, the minimum inhibitory concentration (MIC) in [4] came out at 0.05 µg/mL (≈ 0.143 µM); in [25] it was 0.4 µg/mL (≈ 1.14 µM); in [11] it was 0.2 µg/mL (≈ 0.571 µM); in test [26] it was 0.8 µg/mL (≈ 2.28 µM); in [19] it was 250 µg/mL (≈ 714 µM); in [27] it was 0.2 µg/mL (≈ 0.571 µM). Also, the minimal inhibitory concentration (MIC) was 0.2 µg/mL (≈ 0.571 µM) in [28], 0.4 µg/mL (≈ 1.14 µM) in test [10] and below 0.13 µg/mL in [20]. The compound also returned an EC50 in test [12] of 0.03 p.p.m.
